Measurements published in patent publication EP0262209B1, “SYNERGISTIC PLANT GROWTH REGULATOR COMPOSITIONS” (RHONE POULENC NEDERLAND B.V., priority 1986, dated 1987).

Legend:
[1] = system: snapbean plants; assay: Defoliation of snapbean plants with various ethylene releasing agents (Example XVI, Table M); assay type: in vivo, Phaseolus vulgaris var. Cranberry
Method: (§1) Solutions of the test compounds and compositions identified in Table C below were prepared by dissolving the compounds in acetone/water (50:50 volume/volume) containing 0.1 percent volume/volume of Triton X-100 surfactant commercially available from Rhom and Haas Company, Philadelphia, Pennsylvania. As detailed below, these solutions of the test compounds and compositions were applied to snapbean plants at a concentration of 0.25 pounds of each active ingredient per acre (0.28 kg/ha) or 0.50 pounds of each active ingredient per acre (0.56 kg/ha). The compositions were applied to the snapbean plants as a mixture. Ethephon is commercially available from Union Carbide Agricultural Products Company, Inc., Research Triangle Park, North Carolina.
(§2) Into 13.5 centimeter diameter plastic pots containing a potting soil mix, i.e., one-third sandy loam soil, one-third peat moss and one-third perlite by volume, were sown three snapbean seeds (Phaseolus vulgaris var. Cranberry). Five to seven days after planting, the plants were thinned to one plant per pot. Ten to fourteen days after planting at the time of full expansion of the primary leaves, each concentration of the test compounds and compositions identified in […] (each pot sprayed with a volume equivalent to 180 gallons per acre) - i.e. 1683 l/ha was applied to three snapbean plants as a foliar spray by use of an aspirated spray apparatus set at 10 psig air pressure (517 mmHg). As a control, a water-acetone solution containing no test compound or composition was also sprayed on three snapbean plants. When dry, all or the plants were placed in a greenhouse at a temperature of 80°F ± 5°F (27°C ± 3°C) and humidity of 50 percent ± 5 percent. At 96 hours after treatment, percent defoliation of the snapbean plants was determined by visual observation. The values obtained For the control and each test compound and composition were averaged to obtain the results in Table C.
In a manner similar to the procedure described in Example VI , the defoliation effect on snapbean plants was determined for representative synergistic compositions at various rates of application using various ethylene releasing agents identified in Table M below. The ethylene releasing agents used in […] are known materials which can be prepared by conventional methods.

[2] = system: cotton; assay: Defoliation of cotton at various rates (Example XII, Table I); assay type: in vivo; conditions: Rate 0.5 Pounds per Acre, alone
Method: (§3) Solutions of the test compounds and compositions identified in Table F were prepared by dissolving the compounds in acetone/water (50:50 volume/volume) containing 0.1 percent volume/volume of Surfel® spray adjuvant commercially available from Union Carbide Corporation, Danbury, Connecticut. As detailed below, these solutions of test compounds and compositions were applied to cotton plants at a concentration of 0.5 pounds of each active ingredient per acre (0,6 kg/ha) or 2.0 pounds of active ingredient per acre (2,2 kg/ha). The compositions were applied to cotton as mixtures.
(§4) The above solutions were applied to cotton plants growing under field conditions at a spray volume equivalent to 100 gallons per acre 935 l/ha) by use of a carbon dioxide backpack sprayer set at about 30 psig air pressure (2 bar). The application timing coincided with a cotton maturity phase equivalent to about 40 percent open bolls. As a control, a water-acetone solution containing no test compound or composition was also sprayed on the cotton plants. At four days after treatment, percent defoliation of the cotton plants was determined by visual observation. At 14 days after treatment, percent boll opening was determined by visual observation of the number of open bolls/total number of bolls. The percent defoliation and percent boll opening values obtained for the control and each of the test compounds and compositions are reported in Table F as the average of three replications. TABLE F
In a manner similar to the procedure described in Example IX , the defoliation effect on cotton was determined for representative synergistic compositions at various rates of application.

[3] = system: snapbean plants; assay: Defoliation of snapbean plants, foliar spray (Example VI, Table C); assay type: in vivo, Phaseolus vulgaris var. Cranberry; conditions: Phaseolus vulgaris, foliar spray, 96 hours after treatment, read-out: Percent Defoliation; for pest or weed control at 280.212 g/ha: Rate 0.25 Pounds per Acre; for pest or weed control at 560.425 g/ha: Rate 0.50 Pounds per Acre
Method: as §1, §2

[4] = system: snapbean plants; assay: Combination/sequential applications, defoliation of snapbean plants (Example VIII, Table E); assay type: in vivo, Phaseolus vulgaris var. Cranberry; conditions: Rate 0.5 Pounds per Acre, applied alone
Method: as §1
(§5) Into 13.5 centimeter diameter plastic pots containing a potting soil mix, i.e., one-third sandy loam soil, one-third peat moss and one-third perlite by volume, were sown three snapbean seeds (Phaseolus vulgaris var. Cranberry). Five to seven days after planting, the plants were thinned to one plant per pot. […] At 96 hours after treatment, percent defoliation of the snapbean plants was determined by visual observation. […]
In a manner similar to the procedure described in Example VI , the defoliation effect on snapbean plants was determined for representative synergistic compositions using both combination (tank mix) and sequential application methods. […]

[5] = system: rank growth cotton; assay: Defoliation of cotton (rank growth) (Example X, Table G); assay type: in vivo; conditions: Rate 2.0 Pounds per Acre
Method: as §3, §4
In a manner similar to the procedure described in Example IX , the defoliation effect on rank growth cotton was determined for representative synergistic compositions at various rates of application. […] TABLE G

[6] = system: cotton plant; assay: Regrowth of cotton following defoliation, DEF treated plant as standard (Example XIV, Table K); assay type: in vivo; conditions: regrowth relative to DEF standard (43 percent), Rate 0.5 Pounds per Acre, 30 days after treatment; for inhibition at 560.425 g/ha: Gossypium hirsutum, 720 h, read-out: Percent Inhibition
Method: as §3, §4
In a manner similar to the procedure described in Example IX , the effect of cotton regrowth after defoliation was determined for representative synergistic compositions at various rates of application. The percent regrowth inhibition and stimulation in Table R below were determined by visual observation based on the percent of a cotton plant having regrowth using a DEF treated cotton plant as the standard. DEF is commercially available from Mobay Chemical Corporation, Kansas City, Missouri. The average regrowth of a cotton plant treated with DEF was 43 percent. As used in Table R, percent regrowth inhibition resulted from a cotton plant having a regrowth percentage less than 43 percent (DEF standard), and percent regrowth stimulation resulted from a cotton plant having a regrowth percentage greater than 43 percent. The percent regrowth inhibition and stimulation were determined 30 days after treatment.

[7] = system: mature tobacco plants; assay: Leaf ripening (chlorosis) of tobacco (Example XV, Table L); assay type: in vivo; conditions: Rate 1.0 Pounds per Acre, alone; upper three leaves; 7 days after treatment; control 10
Method: as §1, with “Ethephon is commercially available from Union Carbide Agricultural Products Company, Inc., Research Triangle Park, North Carolina.” left out
as §5, with “Cranberry).” for “Cranberry). Five to seven days after planting, the plants were thinned to one plant per pot.”
In a manner similar to the procedure described in Example VI except that mature tobacco plants were used in place of snapbean plants, the leaf ripening effect of tobacco was determined for representative synergistic compositions at various rates of application. […] Percent tobacco leaf ripening (chlorosis) was determined by visual observation of the upper three leaves of the tobacco plant at 7 days after treatment. […]

[8] = system: cotton; assay: Sequential applications, defoliation of cotton (Example XI, Table H); assay type: in vivo; conditions: alone
Method: In a manner similar to the procedure described in Example VI , the defoliation effect on snapbean plants was determined for representative synergistic compositions using both combination (tank mix) and sequential application methods. In the sequential application method, the second compound was applied 78 hours after the first compound. TABLE E
In a manner similar to the procedure described in Example VIII , the defoliation effect on cotton was determined for representative synergistic compositions using sequential application. Ethephon applications were made 7 days after application of the particular malonic acid derivative compound. TABLE H

[9] = system: snapbean plants; assay: Defoliation of snapbean plants at various rates, 72 hours (Example VII, Table D); assay type: in vivo, Phaseolus vulgaris var. Cranberry; conditions: 72 hours after treatment
Method: as §1, §2
In a manner similar to the procedure described in Example VI, the defoliation effect on snapbean plants was determined for representative synergistic compositions at various rates of application except that percent defoliation of the snapbean plants was determined at 72 hours after treatment. TABLE D

[10] = system: cotton plants; assay: Defoliation and boll opening of cotton under field conditions (Example IX, Table F); assay type: in vivo; set-up: key to Percent Boil Opening: *: Percent boll opening essentially the same as the control as determined by visual observation; conditions: Rate 2.0 Pounds per Acre; for Percent Boil Opening: 14 days after treatment, result given by footnote symbol, control 41; for Percent Defoliation: field conditions, four days after treatment
Method: as §3, §4

[11] = system: cotton; assay: Defoliation of cotton at various rates (Example XIII, Table J); assay type: in vivo; conditions: alone
Method: as §3, §4
In a manner similar to the procedure described in Example IX , the defoliation effect on cotton was determined for representative synergistic compositions at various rates of application. TABLE J

[12] = system: snapbean plants; assay: Abscission of snapbean plant leaves with ethylene gas exposure (Example XVII, Table N); assay type: in vivo, Phaseolus vulgaris var. Cranberry
[13] = Concentration 125 ppm foliar spray
[14] = Concentration 250 ppm foliar spray
[15] = Concentration 0.1 ppm ethylene gas

O=P(O)(CCCl)OCCCl [2-Chloroethyl ester of 2-chloroethylphosphonic acid]
Percent Defoliation ([1]; Rate 0.125 Pounds per Acre): 0%
Percent Defoliation ([1]; Rate 0.25 Pounds per Acre): 0%
Percent Defoliation ([1]; Rate 0.50 Pounds per Acre): 0%

NP(N)(=O)CCCl [2-Chloroethylphosphonic diamide]
Percent Defoliation ([1]; Rate 0.125 Pounds per Acre): 0%
Percent Defoliation ([1]; Rate 0.25 Pounds per Acre): 0%
Percent Defoliation ([1]; Rate 0.50 Pounds per Acre): 0%

CCOC(=O)C1(C(=O)Nc2cc(Cl)c(Cl)cc2C)CC1 [Compound 77, ethyl 1-(2-methyl-4,5-dichlorophenylaminocarbonyl)cyclopropanecarboxylate]
Percent Defoliation [2]: 0%

CCOC(=O)C1(C(=O)Nc2ccc(Cl)cc2Cl)CC1 [Compound 80]
pest or weed control at 280.212 g/ha [3]: 0%
pest or weed control at 560.425 g/ha [3]: 0%

CCOC(=O)C1(C(=O)Nc2ccc(Cl)cc2F)CC1 [Compound 82]
pest or weed control at 280.212 g/ha [3]: 0%
pest or weed control at 560.425 g/ha [3]: 0%

CCOC(=O)C1(C(=O)Nc2ccc(Br)cc2Cl)CC1 [Compound 88]
pest or weed control at 280.212 g/ha [3]: 0%
pest or weed control at 560.425 g/ha [3]: 0%

CCOC(=O)C1(C(=O)Nc2ccc(Br)c(Cl)c2)CC1 [Compound 90]
pest or weed control at 280.212 g/ha [3]: 0%
pest or weed control at 560.425 g/ha [3]: 0%

CCOC(=O)C1(C(=O)Nc2ccc(Br)cc2C)CC1 [Compound 96]
Percent Defoliation [4]: 0%
Percent Defoliation [5]: 0%
inhibition at 560.425 g/ha [6]: 0%
Percent Stimulation [6]: 0%
Percent Ripening (Chlorosis) [7]: 10%
Percent Defoliation ([8]; Rate 0.5 Pounds per Acre): 0%
Percent Defoliation ([8]; Rate 1.0 Pounds per Acre): 0%
Percent Defoliation [2]: 0%
Percent Defoliation ([9]; Rate 0.25 Pounds per Acre): 0%
Percent Defoliation ([9]; Rate 0.50 Pounds per Acre): 0%
Percent Boil Opening [10]: *
Percent Defoliation [10]: 0%
pest or weed control at 280.212 g/ha [3]: 0%
pest or weed control at 560.425 g/ha [3]: 0%

Cc1cc(Cl)c(Cl)cc1NC(=O)C1(C(=O)O)CC1 [Compound 110, 1-(2-methyl-4,5-dichlorophenylaminocarbonyl)cyclopropanecarboxylic acid]
Percent Defoliation [2]: 0%

Cc1cc(Br)ccc1NC(=O)C1(C(=O)O)CC1 [Compound 111]
Percent Defoliation ([11]; Rate 0.25 Pounds per Acre): 0%
Percent Defoliation ([11]; Rate 0.5 Pounds per Acre): 0%
Percent Defoliation [5]: 0%
inhibition at 560.425 g/ha [6]: 0%
Percent Stimulation [6]: 0%
Percent Defoliation ([8]; Rate 0.5 Pounds per Acre): 0%
Percent Defoliation ([8]; Rate 1.0 Pounds per Acre): 0%
Percent Defoliation ([1]; Rate 0.125 Pounds per Acre): 0%
Percent Defoliation ([1]; Rate 0.25 Pounds per Acre): 0%
Percent Defoliation ([1]; Rate 0.50 Pounds per Acre): 0%
Percent Abscission 48 Hours [12, 13]: 0%
Percent Abscission 96 Hours [12, 13]: 17%
Percent Abscission 48 Hours [12, 14]: 33%
Percent Abscission 96 Hours [12, 14]: 50%
Percent Boil Opening [10]: *
Percent Defoliation [10]: 0%
pest or weed control at 280.212 g/ha [3]: 0%
pest or weed control at 560.425 g/ha [3]: 0%

O=C(O)C1(C(=O)Nc2cc(Cl)c(Cl)cc2Cl)CC1 [Compound 112]
pest or weed control at 280.212 g/ha [3]: 0%
pest or weed control at 560.425 g/ha [3]: 0%

O=C(O)C1(C(=O)Nc2cc(Cl)ccc2Cl)CC1 [Compound 113]
pest or weed control at 280.212 g/ha [3]: 0%
pest or weed control at 560.425 g/ha [3]: 0%

O=C(O)C1(C(=O)Nc2ccc(Cl)cc2Cl)CC1 [Compound 114]
pest or weed control at 280.212 g/ha [3]: 0%
pest or weed control at 560.425 g/ha [3]: 0%

O=C(O)C1(C(=O)Nc2ccc(Cl)cc2F)CC1 [Compound 115]
pest or weed control at 280.212 g/ha [3]: 0%
pest or weed control at 560.425 g/ha [3]: 0%

O=C(O)C1(C(=O)Nc2ccc(Cl)cc2)CC1 [Compound 116]
pest or weed control at 280.212 g/ha [3]: 0%
pest or weed control at 560.425 g/ha [3]: 0%

O=C(O)C1(C(=O)Nc2ccc(Br)cc2)CC1 [Compound 117]
pest or weed control at 280.212 g/ha [3]: 0%
pest or weed control at 560.425 g/ha [3]: 0%

O=C(O)C1(C(=O)Nc2ccc(Br)cc2Br)CC1 [Compound 120]
pest or weed control at 280.212 g/ha [3]: 0%
pest or weed control at 560.425 g/ha [3]: 0%

O=C(O)C1(C(=O)Nc2ccc(Br)cc2Cl)CC1 [Compound 121]
pest or weed control at 280.212 g/ha [3]: 0%
pest or weed control at 560.425 g/ha [3]: 0%

O=C(O)C1(C(=O)Nc2ccc(Cl)cc2Br)CC1 [Compound 122]
pest or weed control at 280.212 g/ha [3]: 0%
pest or weed control at 560.425 g/ha [3]: 0%

O=C(O)C1(C(=O)Nc2ccc(Br)c(Cl)c2)CC1 [Compound 123]
pest or weed control at 280.212 g/ha [3]: 0%
pest or weed control at 560.425 g/ha [3]: 0%

C=C [Ethylene Gas, ethylene, reference compound]
Percent Abscission 48 Hours [12, 15]: 0%
Percent Abscission 96 Hours [12, 15]: 0%
